Read-outs that look alike come from different tables or passages of the source.
Key:
Format in all cases: in vivo, Brassica napus
[1] = test system: BN-02 (wild type); assay: Herbicide injury rating, Table 4; conditions: 3-4 leaf stage, 2 weeks post spray, line BN-02
Description: (§1) Herbicide Injury Rating for Brassica napus Plants Treated with Imazamox. Plants for lines BN02 (wild type), two lines of BnCL131A1 (AHAS III A122T S653N double mutant; BnCL131A1.0 and BnCL131A1.18), PM1/PM2 (commercial two gene check: AHAS I S653N & AHAS III W574L) were grown […] Merge. Herbicide injury was evaluated 2 weeks post spray on 12 plants per line. The results are presented as mean injury±one standard error of the mean in Table 4 below. The results cover one planting and spray for all lines and the values for ±two standard error of the mean are also provided.

[2] = test system: BnCL131A1.0 (AHAS III A122T S653N double mutant); assay: Herbicide injury rating, Table 4; conditions: 3-4 leaf stage, 2 weeks post spray, line BnCL131A1.0
Description: as §1

[3] = test system: BnCL131A1.18 (AHAS III A122T S653N double mutant); assay: Herbicide injury rating, Table 4; conditions: 3-4 leaf stage, 2 weeks post spray, line BnCL131A1.18
Description: as §1

[4] = test system: PM1/PM2 (commercial two gene check: AHAS I S653N & AHAS III W574L); assay: Herbicide injury rating, Table 4; conditions: 3-4 leaf stage, 2 weeks post spray, line PM1/PM2
Description: as §1

[5] = test system: BNCL120C7 (BN-02) (AHASIII A122T); assay: Field test herbicide injury, Minot; conditions: 200 g ai/ha, 15 days after treatment, A122T single mutant BNCL120C7 (BN-02)
Excerpt: (§2) B. napus plants from the following spring oilseed rape lines: BN-02 (wild type), BN-T (wild type), BnCL131A1 in a BN-02 background genotype (AHAS III A122T S653N double mutant), BnCL120C7 in a BN-02 background genotype (BnAHASIII A122T), BnCL97 in a BN-02 background genotype (BnAHASIII S653N), PM1/PM2 in a BN-T background (two gene check: AHAS I S653N & AHAS III W574L), PM1 in a BN-T background (one gene check: AHAS I S653N) and PM2 in a BN-T background (one gene check: AHAS III W574L) were field tested at a site near Minot, N. Dak. Lines were planted in 5 m long single row plots and arranged in a two factorial split plot design with 3 repetitions and 4 treatments (0 g ai/ha imazamox, 50 g ai/ha imazamox, 100 g ai/ha imazamox and 200 g ai/ha imazamox). Plants were sprayed at the 2-4 leaf stage with the above mentioned imazamox treatments. The imazamox product (Beyond 120 g/L LC+0.25% (v/v) non-ionic surfactant) was diluted in 20 gallons per acre (or 200 liters/ha) and applied using a tractor mounted boom.
(§3) Herbicide injury was evaluated 15 days after treatment (DAT) on a per plot basis using a scale from 0 to 100%, where 0 was no injury and 100% was complete plant death.

[6] = test system: BnCL131A1 (BN-02) (AHAS III A122T, S653N); assay: Field test herbicide injury, Minot; conditions: 200 g ai/ha
Excerpt: as §2, §3

[7] = test system: BnCL97 (BN-02) (AHASIII S653N); assay: Field test herbicide injury, Minot; conditions: 200 g ai/ha, 15 days after treatment, S653N single mutant BnCL97 (BN-02)
Excerpt: as §2, §3

[8] = test system: AHASL1A-A122T, A122T (Ho); conditions: 18 Days After Treatment, line AHASL1A-A122T; for Mean Percent Crop Phytotoxicity (% Crop Injury): field, 2-4 leaf stage
Excerpt: Hand-crossed hybrids were produced in the greenhouse between two IMI-tolerant spring Brassica napus parental lines: “BnCL131A1” (homozygous for the A genome IMI-tolerant mutation AHASL1A-A122(At)T-S653(At)N) and “PM1PM2” (homozygous for the A genome AHAS-inhibitor tolerant mutation AHASL1A-W574(At)L (PM2) plus the C genome AHAS-inhibitor tolerant mutation AHASL1C-S653(At)N(PM1)). The resulting heterozygous hand-crossed hybrid line, “PM1PM2/BnCL131A 1” (heterozygous for the stacked mutations: AHASL1A-A122(At)T-S653(At)N, AHASL1A-W574(At)L (PM2), AHASL1C-S653(At)N(PM1)) was field tested together with lines each containing only one AHAS-inhibitor tolerant mutation (homozygous or heterozygous) and several spring Brassica napus checks.
The three repetition trial was conducted in Simcoe, N. Dak., and used a randomized split block design. The trial was designed to measure the percent phytotoxicity (% crop injury) of the different entries under 5 different imidazolinone herbicide treatment rates. Plants were sprayed at the 2-4 leaf stage at a volume of 100 liters/ha. The imidazolinone herbicide rates used were as follows (Imazamox=BEYOND™ 120 g/I LC (BAS 72001H); NIS=INDUCE™ 90 (90% non-ionic surfactant; Helena Chemical Co., Collierville, Tenn.):
Crop Injury Ratings were determined in the field by assessing each plot in the trial for the level of phytotoxicity (percent crop injury) on a scale from 0-100% at 18 days after treatment. Mean values for each entry across the three replications along with their statistical significance (ANOVA) are presented in Table 6 (Ho=homozygous; He=heterozygous). Each value presented in Table 6 is the mean of three replications.
The percent phytotoxicity (% crop injury) ratings were transposed into Herbicide Tolerance ratings by subtracting the percent crop injury rating (Table 6) for each line from 100% to obtain the percent herbicide tolerance (Table 7) (Ho=homozygous; He=heterozygous).

COCc1cnc(C2=NC(C)(C(C)C)C(=O)N2)c(C(=O)O)c1 (stereo not drawn) [imazamox]
Herbicide injury rating, mean injury ± standard error of the mean ([1]; 35 g ai/ha + 0.5% v/v Merge): 8.92 ± 0.08 | Herbicide injury rating, mean injury ± standard error of the mean ([1]; 70 g ai/ha + 0.5% v/v Merge): 9.00 ± 0.00 | Herbicide injury rating, mean injury ± standard error of the mean ([1]; 210 g ai/ha + 0.5% v/v Merge): 9.00 ± 0.00 | Herbicide injury rating, mean injury ± standard error of the mean ([1]; 420 g ai/ha): 9.00 ± 0.00 | Herbicide injury rating, mean injury ± standard error of the mean ([2]; 35 g ai/ha + 0.5% v/v Merge): 0.90 ± 0.28 | Herbicide injury rating, mean injury ± standard error of the mean ([2]; 70 g ai/ha + 0.5% v/v Merge): 1.20 ± 0.29 | Herbicide injury rating, mean injury ± standard error of the mean ([2]; 210 g ai/ha + 0.5% v/v Merge): 1.45 ± 0.28 | Herbicide injury rating, mean injury ± standard error of the mean ([2]; 420 g ai/ha): 3.20 ± 0.20 | Herbicide injury rating, mean injury ± standard error of the mean ([3]; 35 g ai/ha + 0.5% v/v Merge): 0.64 ± 0.20 | Herbicide injury rating, mean injury ± standard error of the mean ([3]; 70 g ai/ha + 0.5% v/v Merge): 0.91 ± 0.21 | Herbicide injury rating, mean injury ± standard error of the mean ([3]; 210 g ai/ha + 0.5% v/v Merge): 1.89 ± 0.20 | Herbicide injury rating, mean injury ± standard error of the mean ([3]; 420 g ai/ha): 2.27 ± 0.14 | Herbicide injury rating, mean injury ± standard error of the mean ([4]; 35 g ai/ha + 0.5% v/v Merge): 0.50 ± 0.19 | Herbicide injury rating, mean injury ± standard error of the mean ([4]; 70 g ai/ha + 0.5% v/v Merge): 1.83 ± 0.21 | Herbicide injury rating, mean injury ± standard error of the mean ([4]; 210 g ai/ha + 0.5% v/v Merge): 2.00 ± 0.23 | Herbicide injury rating, mean injury ± standard error of the mean ([4]; 420 g ai/ha): 3.83 ± 0.21 | amount of tolerance (100% minus crop injury) [5]: 20% | amount of tolerance (100% minus crop injury) ([6]; field, 15 days after treatment, double mutant line BnCL131A1 (BN-02)): 62% | expected tolerance if additive (A122T plus S653N) ([6]; sum of tolerances of the two single mutant lines): 37% | amount of tolerance (100% minus crop injury) [7]: 17% | Mean Percent Crop Phytotoxicity (% Crop Injury) ([8]; 35 g ai/ha + 0.25% (v/v) NIS): 70% | Mean Percent Herbicide Tolerance (100% minus percent crop injury) ([8]; 35 g ai/ha): 30.0% | Mean Percent Crop Phytotoxicity (% Crop Injury) ([8]; 70 g ai/ha + 0.25% (v/v) NIS): 78.33% | Mean Percent Herbicide Tolerance (100% minus percent crop injury) ([8]; 70 g ai/ha): 21.7% | Mean Percent Crop Phytotoxicity (% Crop Injury) ([8]; 210 g ai/ha + 0.25% (v/v) NIS): 70% | Mean Percent Herbicide Tolerance (100% minus percent crop injury) ([8]; 210 g ai/ha): 30.0% | Mean Percent Crop Phytotoxicity (% Crop Injury), Mean over rates ([8]; mean over 0, 35, 70, 140, 210 g ai/ha (N 15)): 57%

Reference: patent publication US20120060243A1, “Herbicide-Resistant AHAS-Mutants and Methods of Use” (priority 2008, published 2012)
